{"source": "patent US20060009425A1", "about": "“Oral formulations of paricalcitol” (priority 2004, published 2006)", "key": {"[1]": {"test": "Single and multiple dose pharmacokinetics, moderate to severe chronic renal impairment (Example 4, Table 23)", "type": "in vivo, human", "design": "AUC0-24 on Study Day 8 vs. AUC0-∞ on Study Day 1, Point Estimate / AUC0-24 on Study Day 8 vs. AUC0-∞ on Study Day 1, 95% Confidence Interval: unit not given beside the values", "conditions": "for Cmax / Tmax / half-life / AUC(0-t) / AUC(0-inf) / fraction unbound / concentration at 24 h: human, plasma, oral; for AUC(0-t): read-out: AUC0-24; for concentration at 24 h: Study Day 9, read-out: trough concentration 24 h post dose on Study Day 8", "method": "Methodology: This was a Phase 1, open-label, single and multiple-dose, multi-center study. A sufficient number of subjects were screened to have approximately 15 subjects with moderate renal impairment (CKD Stage 3) (Group 1, Glomerular Filtration Rate (GFR) of 30-60 mL/min) and approximately 15 subjects with severe renal impairment (CKD Stage 4) (Group 2, GFR <30 mL/min, not requiring dialysis) enrolled in the study. The subjects in moderate renal impairment group received 4 μg paricalcitol capsule on Study Day 1, and 4 μg QD for 6 doses over Study Days 3-8. The subjects in severe renal impairment group received 3 μg paricalcitol capsule on Study Day 1 and 3 μg QD for 6 doses over Study Days 3-8. Each dose of study was taken orally with approximately 180 mL of water at 0800, 30 minutes after breakfast was served.\nPlasma concentrations of paricalcitol were determined using a validated liquid chromatography method with tandem mass spectrometric assay method at Abbott Laboratories, Ill.\nPharmacokinetic: Values for the pharmacokinetic parameters of paricalcitol, including the maximum observed plasma concentration (Cmax), the time to Cmax(Tmax), the terminal phase elimination rate constant (β), half life (t1/2), area under the plasma concentration-time curve (AUC), apparent total clearance (CL/F), and apparent volume of distribution (Vdβ/F) were determined using noncompartmental methods. Values of these parameters were determined after both single (first) dose (Study Day 1) and multiple doses (Study Day 8). In addition, minimum observed plasma concentration (Cmin), accumulation index (AI), and degree of fluctuation (DFL) after multiple doses were determined for the dose on Study Day 8 (steady state).\nPharmacokinetic: Point estimates and the corresponding 95% confidence intervals were obtained for central values of the pharmacokinetic parameters for each of the renal impairment groups. Two-sample t-test was performed to compare the pharmacokinetic parameters across the two renal impairment groups on each of Study Days 1 and 8. […] Within the framework of the analysis, the mean trough concentration values on Study Days 6, 7 and 8 were each compared to that at 24 h post Study Day 8 dose.\nAn analysis of variance (ANOVA) was performed on Tmax, β, and the logarithms of AUC and Cmax to compare the single-dose and steady-state data for each of the renal impairment groups. The same test was also performed for each group for the difference between the natural logarithm of the AUC0-24 on Day 8 and the natural logarithm of the AUC0-∞ on Study Day 1. Then the point estimate and 95% confidence interval for the ratio of the central values (the central value of the AUC0-24 on Study Day 8 to that of the AUC0-∞ on Study Day 1) were obtained by exponentiating the corresponding point estimate for the difference.\nParicalcitol capsules are under development for the prevention and treatment of secondary hyperparathyroidism in chronic kidney disease (CKD). The aim of this open-label, single and multiple dose, multi-center study was to evaluate the safety, and pharmacokinetics (PK) of paricalcitol in CKD Stage 3 (single 4 μg dose on Day 1 and 4 μg QD from Days 3-8) and CKD Stage 4 (single 3 μg dose on Day 1 and 3 μg QD from Days 3-8) subjects."}, "[2]": {"conditions": "human, in vivo, 24 weeks", "protocol": "Additionally, safety was assessed by the incidence of adverse events, the change from baseline in chemistry, hematology and urinalysis laboratory variables, the change from baseline in subject vital signs, and progressive changes in renal function observed via changes in eGFR.\nAll randomized subjects who received at least 1 dose of study drug were used in safety analyses. […] This comparison was performed using a Fisher's exact test. Secondary safety analyses were performed comparing changes/percent changes from baseline between the paricalcitol and placebo treatment groups using a one-way ANOVA with treatment group as the factor for the following variables: hematology, complete chemistry, and urinalysis variables; 24-hour urine collections, eGFR, urinary calcium/creatinine ratio, cardiovascular markers, and vital signs. Secondary safety analyses also consisted of an analysis of “treatment-emergent” adverse events (i.e., adverse events with an onset date on or after the date the first dose of study drug was taken). Adverse events were summarized by body system and COSTART term according to the COSTART V adverse event-coding dictionary. Comparisons of the percentage of subjects experiencing an adverse event between the paricalcitol and placebo treatment groups were performed using a Fisher's exact test."}, "[3]": {"conditions": "3 ug, severe renal impairment, 3 μg QD, Study Day 8"}, "[4]": {"conditions": "3 ug, severe renal impairment, 3 μg, Study Day 1"}, "[5]": {"conditions": "4 ug, moderate renal impairment, 4 μg QD, Study Day 8"}, "[6]": {"conditions": "4 ug, moderate renal impairment, 4 μg, Study Day 1"}, "[7]": {"conditions": "4 μg, moderate renal impairment"}, "[8]": {"conditions": "moderate renal impairment, 4 μg QD, Study Day 8"}, "[9]": {"conditions": "moderate renal impairment, 4 μg, Study Day 1"}, "[10]": {"conditions": "severe renal impairment, 3 μg QD, Study Day 8"}, "[11]": {"conditions": "severe renal impairment, 3 μg, Study Day 1"}}, "note": "Where two headings read alike, the source gives them in different places.", "data": [{"smiles": "C[C@H](/C=C/[C@H](C)C(C)(C)O)[C@H]1CC[C@H]2/C(=C/C=C3C[C@@H](O)C[C@H](O)C3)CCC[C@]12C", "note": "[Paricalcitol, 19-nor-1α,3β,25-trihydroxy-9,10-secoergosta-5(Z); 7(E),22(E)-triene]", "values": [{"measurement": "Cmax", "setting": "[1]; [3]", "value": "0.097 ± 0.023", "unit": "ng/mL"}, {"measurement": "Tmax", "setting": "[1]; [3]", "value": "9.1 ± 5.5", "unit": "h"}, {"measurement": "half-life", "setting": "[1]; 3 ug, severe renal impairment, 3 μg QD, Study Day 8, harmonic mean ± pseudo-standard deviation, read-out: t1/2 (converted)", "value": "22.9 ± 5.63", "unit": "h"}, {"measurement": "AUC(0-t)", "setting": "[1]; [3]", "value": "1.75 ± 0.421", "unit": "ng·h/mL"}, {"measurement": "AUC(0-inf)", "setting": "[1]; [4]", "value": "2.13 ± 0.733", "unit": "ng·h/mL"}, {"measurement": "Cmax", "setting": "[1]; [4]", "value": "0.065 ± 0.012", "unit": "ng/mL"}, {"measurement": "Tmax", "setting": "[1]; [4]", "value": "5.9 ± 3.6", "unit": "h"}, {"measurement": "half-life", "setting": "[1]; 3 ug, severe renal impairment, 3 μg, Study Day 1, harmonic mean ± pseudo-standard deviation, read-out: t1/2 (converted)", "value": "19.7 ± 7.19", "unit": "h"}, {"measurement": "AUC(0-t)", "setting": "[1]; [4]", "value": "1.02 ± 0.23", "unit": "ng·h/mL"}, {"measurement": "fraction unbound", "setting": "[1]; 3 μg, severe renal impairment", "value": "0.0008 ± 0.0002"}, {"measurement": "concentration at 24 h", "setting": "[1]; 3 μg, severe renal impairment", "value": "0.057 ± 0.014", "unit": "ng/mL"}, {"measurement": "Cmax", "setting": "[1]; [5]", "value": "0.155 ± 0.057", "unit": "ng/mL"}, {"measurement": "Tmax", "setting": "[1]; [5]", "value": "4.2 ± 1.9", "unit": "h"}, {"measurement": "half-life", "setting": "[1]; 4 ug, moderate renal impairment, 4 μg QD, Study Day 8, harmonic mean ± pseudo-standard deviation, read-out: t1/2 (converted)", "value": "15.5 ± 3.21", "unit": "h"}, {"measurement": "AUC(0-t)", "setting": "[1]; [5]", "value": "2.22 ± 0.701", "unit": "ng·h/mL"}, {"measurement": "AUC(0-inf)", "setting": "[1]; [6]", "value": "2.42 ± 0.614", "unit": "ng·h/mL"}, {"measurement": "Cmax", "setting": "[1]; [6]", "value": "0.113 ± 0.036", "unit": "ng/mL"}, {"measurement": "Tmax", "setting": "[1]; [6]", "value": "4.7 ± 2.5", "unit": "h"}, {"measurement": "half-life", "setting": "[1]; 4 ug, moderate renal impairment, 4 μg, Study Day 1, harmonic mean ± pseudo-standard deviation, read-out: t1/2 (converted)", "value": "16.8 ± 2.65", "unit": "h"}, {"measurement": "AUC(0-t)", "setting": "[1]; [6]", "value": "1.45 ± 0.407", "unit": "ng·h/mL"}, {"measurement": "fraction unbound", "setting": "[1]; [7]", "value": "0.0008 ± 0.0005"}, {"measurement": "concentration at 24 h", "setting": "[1]; [7]", "value": "0.057 ± 0.019", "unit": "ng/mL"}, {"measurement": "half-life", "setting": "[1]; moderate and severe renal impairment (CKD Stage 3 and 4) subjects, read-out: mean half-life", "value": "16 to 23", "unit": "h"}, {"measurement": "steady state essentially reached by", "setting": "[1]; moderate and severe renal impairment subjects, QD dosing", "value": "≤ 6", "unit": "Study Day"}, {"measurement": "AUC0-24 on Study Day 8 vs. AUC0-∞ on Study Day 1, 95% Confidence Interval", "setting": "[1]; moderate renal impairment", "value": "0.8150-0.9896"}, {"measurement": "AUC0-24 on Study Day 8 vs. AUC0-∞ on Study Day 1, Point Estimate", "setting": "[1]; moderate renal impairment", "value": 0.8981}, {"measurement": "CL/F", "setting": "[1]; [8]", "value": "2.014 ± 0.774", "unit": "L/h"}, {"measurement": "Cmax/Dose", "setting": "[1]; [8]", "value": "0.039 ± 0.014", "unit": "ng/mL/µg"}, {"measurement": "Cmin", "setting": "[1]; [8]", "value": "0.047 ± 0.018", "unit": "ng/mL"}, {"measurement": "DFL (degree of fluctuation)", "setting": "[1]; [8]", "value": "116.77 ± 35.24", "unit": "%"}, {"measurement": "Vdβ/F", "setting": "[1]; [8]", "value": "46.76 ± 19.35", "unit": "L"}, {"measurement": "β", "setting": "[1]; [8]", "value": "0.045 ± 0.009", "unit": "h−^1"}, {"measurement": "CL/F", "setting": "[1]; [9]", "value": "1.766 ± 0.505", "unit": "L/h"}, {"measurement": "Cmax/Dose", "setting": "[1]; [9]", "value": "0.028 ± 0.009", "unit": "ng/mL/µg"}, {"measurement": "Vdβ/F", "setting": "[1]; [9]", "value": "43.72 ± 14.45", "unit": "L"}, {"measurement": "β", "setting": "[1]; [9]", "value": "0.041 ± 0.007", "unit": "h−^1"}, {"measurement": "pre-dose trough concentration", "setting": "[1]; moderate renal impairment, Study Day 6", "value": "0.050 ± 0.016", "unit": "ng/mL"}, {"measurement": "pre-dose trough concentration", "setting": "[1]; moderate renal impairment, Study Day 7", "value": "0.053 ± 0.014", "unit": "ng/mL"}, {"measurement": "pre-dose trough concentration", "setting": "[1]; moderate renal impairment, Study Day 8", "value": "0.053 ± 0.019", "unit": "ng/mL"}, {"measurement": "AUC0-24 on Study Day 8 vs. AUC0-∞ on Study Day 1, 95% Confidence Interval", "setting": "[1]; severe renal impairment", "value": "0.7612-0.9227"}, {"measurement": "AUC0-24 on Study Day 8 vs. AUC0-∞ on Study Day 1, Point Estimate", "setting": "[1]; severe renal impairment", "value": 0.8380}, {"measurement": "CL/F", "setting": "[1]; [10]", "value": "1.751 ± 0.388", "unit": "L/h"}, {"measurement": "Cmax/Dose", "setting": "[1]; [10]", "value": "0.032 ± 0.008", "unit": "ng/mL/µg"}, {"measurement": "Cmin", "setting": "[1]; [10]", "value": "0.049 ± 0.010", "unit": "ng/mL"}, {"measurement": "DFL (degree of fluctuation)", "setting": "[1]; [10]", "value": "64.86 ± 17.79", "unit": "%"}, {"measurement": "Vdβ/F", "setting": "[1]; [10]", "value": "61.61 ± 20.34^¥ L"}, {"measurement": "β", "setting": "[1]; [10]", "value": "0.030 ± 0.007", "unit": "h−^1"}, {"measurement": "CL/F", "setting": "[1]; [11]", "value": "1.517 ± 0.359", "unit": "L/h"}, {"measurement": "Cmax/Dose", "setting": "[1]; [11]", "value": "0.022 ± 0.004", "unit": "ng/mL/µg"}, {"measurement": "Vdβ/F", "setting": "[1]; [11]", "value": "46.40 ± 12.45", "unit": "L"}, {"measurement": "β", "setting": "[1]; [11]", "value": "0.035 ± 0.013", "unit": "h−^1"}, {"measurement": "pre-dose trough concentration", "setting": "[1]; severe renal impairment, Study Day 6", "value": "0.051 ± 0.011", "unit": "ng/mL"}, {"measurement": "pre-dose trough concentration", "setting": "[1]; severe renal impairment, Study Day 7", "value": "0.050 ± 0.015", "unit": "ng/mL"}, {"measurement": "pre-dose trough concentration", "setting": "[1]; severe renal impairment, Study Day 8", "value": "0.056 ± 0.012", "unit": "ng/mL"}, {"measurement": "adverse event incidence: viral infection", "setting": "[2]", "value": 10, "unit": "%"}]}]}
